From patent publication US7897582B2, “Oligonucleotide compositions and methods for the modulation of the expression of B7 protein” (Isis Pharmaceuticals, Inc., priority 2003, dated 2011) come the findings set out here.

Strand notation (5' to 3'): a small letter for the sugar, then the base; units joined by * are phosphorothioate-linked, units joined directly phosphodiester-linked; [ ] holds rarer units or linkages, { } end groups; capitals alone tell only the bases. e = 2'-O-(2-methoxyethyl) (MOE); [5mC] = 5-methylcytosine; d = 2'-deoxy (DNA)

One series has as its system human B7-2. As to the kind of experiment: Cell surface expression of B7-2 in transfected COS-7 cells by flow cytometry. The class given is cell-based. To be noted: for % Surface Inhibition / % Surface Expression: COS-7 cells, B7-2 cell surface; for % Surface Expression: basal = 100%; for % B7-2 EXPRESSION: human B7 cell surface expression, Table 16. As for the experimental part:
(§1) A T-175 flask was seeded at 75% confluency with COS-7 cells (ATCC accession No. CRL 1651). The plasmid pcB7-1 was introduced into cells by standard calcium phosphate transfection. Following a 4 hour transfection, the cells were trypsinized and seeded in 12-well dishes at 80% confluency. The cells were allowed to adhere to the plastic for 1 hour and were then washed with phosphate-buffered saline (PBS). OptiMEM™ (GIBCO-BRL, Gaithersburg, Md.) medium was added along with 15 μg/mL of Lipofectin™ (GIBCO-BRL, Gaithersburg, Md.) and oligonucleotide at the indicated concentrations. After four additional hours, the cells were washed with phosphate buffered saline (PBS) and incubated with fresh oligonucleotide at the same concentration in DMEM (Dulbecco et al., Virol., 1959, 8, 396; Smith et al., Virol., 1960, 12, 185) with 10% fetal calf sera (FCS).
(§2) In order to monitor the effects of oligonucleotides on cell surface expression of B7-1, treated COS-7 cells were harvested by brief trypsinization 24-48 hours after oligonucleotide treatment. The cells were washed with PBS, then resuspended in 100 μL of staining buffer (PBS, 0.2% BSA, 0.1% azide) with 5 μL conjugated anti-B7-1-antibody (i.e., anti-hCD80-FITC, Ancell, Bayport, Minn.; FITC: fluorescein isothiocyanate). The cells were stained for 30 minutes at 4° C., washed with PBS, resuspended in 300 μL containing 0.5% paraformaldehyde. Cells were harvested and the fluorescence profiles were determined using a flow cytometer.
In an initial screen, the ability of hB7-2 oligonucleotides to inhibit B7-2 expression was evaluated by measuring the cell surface expression of B7-2 in transfected COS-7 cells by flow cytometry. The methods used were similar to those given in Example 2, with the exceptions that (1) COS-7 cells were transfected with the plasmids pbcB7-2 or BBG-58, a human ICAM-1 (CD54) expression vector (R&D Systems, Minneapolis, Minn.) introduced into cells by standard calcium phosphate transfection, (2) the oligonucleotides used were those described in Table 2, and (3) a conjugated anti-B7-2 antibody (i.e., anti-hCD86-FITC or anti-CD86-PE, PharMingen, San Diego, Calif.; PE: phycoerythrin) was used during flow cytometry.
(§3) B7 antisense oligonucleotides were tested for their effect on cell surface expression of both B7-1 and B7-2. Cell surface expression was measured as described in Example 1. Experiments were done for both human B7 and mouse B7.
The oligonucleotides were screened as described in Example 2 except that the concentration of oligonucleotide was varied as shown in Table 19.
For orientation: A flow cytometer gives signals particle by particle.

The next series concerns hB7-2 mRNA. As to the kind of experiment: Ribonuclease protection assay of hB7-2 mRNA in transfected COS-7 cells. The class given is cell-based, human. The procedure: For ribonuclease protection assays, cells were harvested 18 hours after completion of oligonucleotide treatment using a Totally RNA™ kit (Ambion, Austin, Tex.). The probes for the assay were generated from plasmids pcB7-2 (linearized by digestion with Bgl II) and pTRI-b-actin (Ambion Inc., Austin, Tex.). In vitro transcription of the linearized plasmid from the SP6 promoter was performed in the presence of α-^32P-UTP (800 Ci/mmole) yielding an antisense RNA complementary to the 3′ end of B7-2 (position 1044-1391). The probe was gel-purified after treatment with DNase I to remove DNA template. Ribonuclease protection assays were carried out using an RPA II™ kit (Ambion) according to the manufacturer's directions. Total RNA (5 μg) was hybridized overnight, at 42° C., with 10^5 cpm of the B7-2 probe or a control beta-actin probe. The hybridization reaction was then treated, at 37° C. for 30 minutes, with 0.4 units of RNase A and 2 units of RNase T1. Protected RNA was precipitated, resuspended in 10 μL of gel loading buffer and electrophoresed on a 6% acrylamide gel with 50% w/v urea at 20 W. The gel was then exposed and the lanes quantitated using a PhosphorImager (Molecular Dynamics, Sunnyvale, Calif.) essentially according to the manufacturer's instructions.
The oligonucleotides were screened as described in Example 4 except that the concentration of oligonucleotide was varied as shown in Table 13. Mismatch control oligonucleotides were included.

A further series has as its system human B7-1. Briefly: Cell surface expression of B7-1 in pcB7-1-transfected COS-7 cells by flow cytometry. The class given is cell-based. As to conditions: for % B7-1 EXPRESSION: human B7 cell surface expression, Table 16. As for the experimental part: The ability of oligonucleotides to inhibit B7-1 expression was evaluated by measuring the cell surface expression of B7-1 in transfected COS-7 cells by flow cytometry.
as §1, §2, §3
The oligonucleotides were screened as described in Example 2 except that the concentration of oligonucleotide was varied as shown in Table 18.

For another series, the system named is Human B7-1 mRNA. Briefly: Human B7-1 mRNA expression in electroporated, LPS-induced THP-1 cells. To be noted: THP-1 cells electroporated at 10 micromolar oligonucleotide, LPS 1 μg/ml 16 hours. The series is classed as cell-based. The text has this: The human promonocytic leukaemia cell line, THP-1 (American Type Culture Collection, Manassas, Va.) was maintained in RPMI 1640 growth media supplemented with 10% fetal calf serum (FCS; Life Technologies, Rockville, Md.). A total of 1×10^7 cells were electroporated at an oligonucleotide concentration of 10 micromolar in 2 mm cuvettes, using an Electrocell Manipulator 600 instrument (Biotechnologies and Experimental Research, Inc.) employing 200 V, 1000 μF. Electroporated cells were then transferred to petri dishes and allowed to recover for 16 hrs. Cells were then induced with LPS at a final concentration of 1 μg/ml for 16 hours. RNA was isolated and processed as described in previous examples.

The mark [1] stands for this setting: COS-7 cells, B7-2 mRNA, oligonucleotide dose 10 nM.
Where [2] appears, read: COS-7 cells, B7-2 mRNA, oligonucleotide dose 10 nM, basal = 100%.
[3] abbreviates: COS-7 cells, B7-2 mRNA, oligonucleotide dose 30 nM.
The mark [4] stands for this setting: COS-7 cells, B7-2 mRNA, oligonucleotide dose 30 nM, basal = 100%.
Setting [5] is: COS-7 cells, B7-2 mRNA, oligonucleotide dose 100 nM.
[6] abbreviates: COS-7 cells, B7-2 mRNA, oligonucleotide dose 100 nM, basal = 100%.
The mark [7] stands for this setting: COS-7 cells, B7-2 mRNA, oligonucleotide dose 300 nM.
Where [8] appears, read: COS-7 cells, B7-2 mRNA, oligonucleotide dose 300 nM, basal = 100%.

Take “22284 (eT*eG*e[5mC]*eG*eA*dG*d[5mC]*dT*d[5mC]*d[5mC]*d[5mC]*d[5mC]*dG*dT*dA*e[5mC]*e[5mC]*eT*e[5mC]*e[5mC]; antisense) [compound 22284]”: the “% Surface Inhibition” value is reported as 37% in the series with human B7-2 (dose 10 nM), 40% in the series on human B7-2 (dose 30 nM), 63% in the series with human B7-2 (dose 100 nM) and 85% with human B7-2 (dose 300 nM). The “% Surface Expression” value was 63% in the series on human B7-2 (dose 10 nM), 60% with human B7-2 (dose 30 nM), 37% in the series on human B7-2 (dose 100 nM) and 15% with human B7-2 (dose 300 nM). Further, the “% B7-2 EXPRESSION” value with human B7-2 amounted to 32%. The “% mRNA INHIBITION” value with hB7-2 mRNA (setting [1]) was found to be 8%; with hB7-2 mRNA (setting [3]), 28%; in the series on hB7-2 mRNA (setting [5]), 41%; in the series with hB7-2 mRNA (setting [7]), 52%. The “% mRNA EXPRESSION” value in the series with hB7-2 mRNA (setting [2]) turned out to be 92%; with hB7-2 mRNA (setting [4]), 72%; in the series on hB7-2 mRNA (setting [6]) it was 59%; with hB7-2 mRNA (setting [8]) it was 48%; in the series on hB7-2 mRNA (human B7-2 mRNA, Table 12) it was 30%. Also, the “% B7-1 EXPRESSION” value with human B7-1 turned out to be 88%.
“22287 (eA*eG*eA*eA*eT*dG*dT*dT*dA*d[5mC]*dT*d[5mC]*dA*dG*dT*e[5mC]*e[5mC]*e[5mC]*eA*eT; antisense) [compound 22287]”: the “% Surface Inhibition” value came out at 7% in the series on human B7-2 (dose 10 nM), 40% in the series with human B7-2 (dose 30 nM), 68% with human B7-2 (dose 100 nM) and 85% in the series with human B7-2 (dose 300 nM). For the same substance, the “% Surface Expression” value in the series with human B7-2 (dose 10 nM) is reported as 93%; in the series on human B7-2 (dose 30 nM) it was 60%; with human B7-2 (dose 100 nM), 32%; in the series with human B7-2 (dose 300 nM), 15%. Moreover, the “% B7-2 EXPRESSION” value with human B7-2 is 35%. Moreover, the “% mRNA INHIBITION” value was found to be 7% in the series with hB7-2 mRNA (setting [1]), 21% in the series with hB7-2 mRNA (setting [3]), 34% in the series on hB7-2 mRNA (setting [5]) and 55% in the series with hB7-2 mRNA (setting [7]). In addition, the “% mRNA EXPRESSION” value in the series on hB7-2 mRNA (setting [2]) amounted to 93%; in the series with hB7-2 mRNA (setting [4]) it was 79%; in the series on hB7-2 mRNA (setting [6]), 66%; in the series on hB7-2 mRNA (setting [8]), 45%; in the series with hB7-2 mRNA (human B7-2 mRNA, Table 12), 27%. Also, the “% B7-1 EXPRESSION” value in the series on human B7-1 is on record as 92%.
On to “113509 (antisense e[5mC]*eA*eT*eG*eA*dA*dG*d[5mC]*dT*dG*dT*dG*dG*dT*dT*eG*eG*eT*eT*eG) [compound 113509]”, for which, in the series on Human B7-1 mRNA, the “% mRNA EXPRESSION” value was determined as 62% and the “% mRNA INHIBITION” value is recorded as 38%.
For “113510 (antisense eA*eG*eG*eA*eA*dA*dA*dT*dG*d[5mC]*dT*d[5mC]*dT*dT*dG*e[5mC]*eT*eT*eG*eG) [compound 113510]”, in the series on Human B7-1 mRNA, the “% mRNA EXPRESSION” value worked out at 43% and the “% mRNA INHIBITION” value is 57%.
The corresponding values for “113511 (antisense eT*eG*eG*eG*eA*dG*d[5mC]*dA*dG*dG*dT*dT*dA*dT*d[5mC]*eA*eG*eG*eA*eA) [compound 113511]” are 48% and 52%.
Regarding “113512 (antisense eT*eA*eA*eG*eG*dT*dA*dA*dT*dG*dG*d[5mC]*d[5mC]*d[5mC]*dA*eG*eG*eA*eT*eG) [compound 113512]”, in the series on Human B7-1 mRNA, the “% mRNA EXPRESSION” value is on record as 73% and the “% mRNA INHIBITION” value amounted to 27%.
On to “113513 (antisense eG*eG*eT*e[5mC]*eA*dG*dG*d[5mC]*dA*dG*d[5mC]*dA*dT*dA*dT*e[5mC]*eA*e[5mC]*eA*eA) [compound 113513]”, for which, in the series on Human B7-1 mRNA, the “% mRNA EXPRESSION” value was 48% and the “% mRNA INHIBITION” value is reported as 52%.
On to “113515 (antisense eA*eG*eA*eT*e[5mC]*dT*dT*dT*dT*d[5mC]*dA*dG*d[5mC]*d[5mC]*d[5mC]*e[5mC]*eT*eT*eG*e[5mC]) [compound 113515]”, for which the “% mRNA EXPRESSION” value in the series on Human B7-1 mRNA is recorded as 184%.
For the substance “113516 (antisense eT*eT*eT*eG*eT*dT*dA*dA*dG*dG*dG*dA*dA*dG*dA*eA*eT*eG*e[5mC]*e[5mC]) [compound 113516]”, in the series with Human B7-1 mRNA, the “% mRNA EXPRESSION” value turned out to be 83% and the “% mRNA INHIBITION” value was 17%.
For the substance “113517 (antisense eA*eA*eA*eG*eG*dA*dG*dA*dG*dG*dG*dA*dT*dG*d[5mC]*e[5mC]*eA*eG*e[5mC]*e[5mC]) [compound 113517]”, the “% mRNA EXPRESSION” value in the series on Human B7-1 mRNA turned out to be 201%.
As for “113518 (antisense e[5mC]*eA*eA*eG*eA*d[5mC]*dA*dA*dT*dT*d[5mC]*dA*dA*dG*dA*eT*eG*eG*e[5mC]*eA) [compound 113518]”, in the series with Human B7-1 mRNA, the “% mRNA EXPRESSION” value was found to be 97% and the “% mRNA INHIBITION” value was 03%.
Take “ISIS 13800: phosphorothioate oligonucleotide to human B7-1 mRNA 0158-0177; 5′ UTR; SEQ ID NO: 25 (antisense dA*dC*dA*dC*dA*dC*dA*dG*dA*dG*dA*dT*dT*dG*dG*dA*dG*dG*dG*dT)”: in the series with human B7-1 (COS-7 cells transiently expressing B7-1 cDNA, FIG. 1), the “inhibition of B7-1 expression” value is “essentially no inhibition”. Further, the “inhibition of cell surface expression of B7-1 at various concentrations” value in the series with human B7-1 (dose response, FIG. 2) is “essentially inactive”.
With “ISIS 13872: scrambled control of ISIS 13812; SEQ ID NO: 52 (SEQ ID NO: 37) (antisense dA*dG*dT*dC*dC*dT*dA*dC*dT*dA*dC*dC*dA*dG*dC*dC*dG*dC*dC*dT) [reference compound]”, in the series with human B7-2 (FIG. 5), the “effect on B7-2 expression (specificity)” value was “essentially no activity”. Also, the “effect on B7-1 expression (specificity)” value in the series on human B7-1 (FIG. 5) is listed as “essentially no activity”.
